Source: US20210254272A1, “TEXTILES HAVING ANTIMICROBIAL PROPERTIES” (Livinguard AG, priority 2015, published 2021)

Assay: Leaching test: 100 g fabric soaked in 10 liters stagnant distilled water, 3 days (72 hours)
Assay type: physicochemical
Conditions: for Leaching of active ingredients: exhaust 80° C. 60 min, cured 180° C. 2 min, post wash
In short: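 Test and control fabrics were soaked together in a closed jar. Leached substances in the water were then determined by standard analytical methods.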

For CCCC1COC(Cn2cncn2)(c2ccc(Cl)cc2Cl)O1 (centres unmarked) [Propiconazole, propiconazole], the “Leaching of active ingredients (in ppm)” value (0.2% each in mixture (o.w.f), exhaust 80° C., 60 min, curing 180° C., 2 min, unwashed) was 4 ppm, the “Leaching of active ingredients (in ppm)” value (0.5% each in mixture (o.w.f), exhaust 80° C., 60 min, curing 180° C., 2 min, unwashed) was 6 ppm and the “Leaching of active ingredients (in ppm)” value (1.0% each in mixture (o.w.f), exhaust 80° C., 60 min, curing 180° C., 2 min, unwashed) was 8 ppm. It also gave a Leeching in ppm (Exhaust + Wash + pad + Wash, exhaust 0.1% o.w.f. each in mixture, 1 gm/liter pad) of 0.5 ppm, a Leeching in ppm (Exhaust + Wash + pad + Wash, exhaust 0.1% o.w.f. each in mixture, 5 gm/liter pad) of 0.7 ppm and a Leeching in ppm (Exhaust + Wash + pad + Wash, exhaust 0.1% o.w.f. each in mixture, 10 gm/liter pad) of 0.6 ppm. It also gave a Leeching in ppm (Exhaust + Wash + pad + Wash, exhaust 0.25% o.w.f. each in mixture, 1 gm/liter pad) of 7 ppm, a Leeching in ppm (Exhaust + Wash + pad + Wash, exhaust 0.25% o.w.f. each in mixture, 5 gm/liter pad) of 7 ppm and a Leeching in ppm (Exhaust + Wash + pad + Wash, exhaust 0.25% o.w.f. each in mixture, 10 gm/liter pad) of 20 ppm. The Leeching in ppm (Exhaust + Wash + pad + Wash, exhaust 0.5 (% o.w.f) each in mixture, 1 gm/liter pad) was 5 ppm, the Leeching in ppm (Exhaust + Wash + pad + Wash, exhaust 0.5 (% o.w.f) each in mixture, 5 gm/liter pad) was 15 ppm and the Leeching in ppm (Exhaust + Wash + pad + Wash, exhaust 0.5 (% o.w.f) each in mixture, 10 gm/liter pad) was 26 ppm. The Leeching in ppm (Exhaust + Wash + pad + Wash, exhaust 1.0% o.w.f. each in mixture, 1 gm/liter pad) was 10 ppm, the Leeching in ppm (Exhaust + Wash + pad + Wash, exhaust 1.0% o.w.f. each in mixture, 5 gm/liter pad) was 19 ppm and the Leeching in ppm (Exhaust + Wash + pad + Wash, exhaust 1.0% o.w.f. each in mixture, 10 gm/liter pad) was 34 ppm. It also gave a Leeching in ppm (Exhaust + pad + Wash, exhaust 0.1% o.w.f. each in mixture, 1 gm/liter pad) of 149 ppm, a Leeching in ppm (Exhaust + pad + Wash, exhaust 0.1% o.w.f. each in mixture, 5 gm/liter pad) of 241 ppm and a Leeching in ppm (Exhaust + pad + Wash, exhaust 0.1% o.w.f. each in mixture, 10 gm/liter pad) of 256 ppm. The Leeching in ppm (Exhaust + pad + Wash, exhaust 0.25% o.w.f. each in mixture, 1 gm/liter pad) was 231 ppm, the Leeching in ppm (Exhaust + pad + Wash, exhaust 0.25% o.w.f. each in mixture, 5 gm/liter pad) was 259 ppm and the Leeching in ppm (Exhaust + pad + Wash, exhaust 0.25% o.w.f. each in mixture, 10 gm/liter pad) was 546 ppm. The Leeching in ppm (Exhaust + pad + Wash, exhaust 0.5 (% o.w.f) each in mixture, 1 gm/liter pad) was 475 ppm, the Leeching in ppm (Exhaust + pad + Wash, exhaust 0.5 (% o.w.f) each in mixture, 5 gm/liter pad) was 538 ppm and the Leeching in ppm (Exhaust + pad + Wash, exhaust 0.5 (% o.w.f) each in mixture, 10 gm/liter pad) was 649 ppm. For the same compound, the Leeching in ppm (Exhaust + pad + Wash, exhaust 1.0% o.w.f. each in mixture, 1 gm/liter pad) was 578 ppm, the Leeching in ppm (Exhaust + pad + Wash, exhaust 1.0% o.w.f. each in mixture, 5 gm/liter pad) was 689 ppm and the Leeching in ppm (Exhaust + pad + Wash, exhaust 1.0% o.w.f. each in mixture, 10 gm/liter pad) was 853 ppm. For the same compound, the Leeching in ppm (Exhaust + pad, exhaust 0.1% o.w.f. each in mixture, 1 gm/liter pad) was 194 ppm, the Leeching in ppm (Exhaust + pad, exhaust 0.1% o.w.f. each in mixture, 5 gm/liter pad) was 284 ppm and the Leeching in ppm (Exhaust + pad, exhaust 0.1% o.w.f. each in mixture, 10 gm/liter pad) was 345 ppm. The Leeching in ppm (Exhaust + pad, exhaust 0.25% o.w.f. each in mixture, 1 gm/liter pad) was 317 ppm, the Leeching in ppm (Exhaust + pad, exhaust 0.25% o.w.f. each in mixture, 5 gm/liter pad) was 346 ppm and the Leeching in ppm (Exhaust + pad, exhaust 0.25% o.w.f. each in mixture, 10 gm/liter pad) was 354 ppm. The Leeching in ppm (Exhaust + pad, exhaust 0.5 (% o.w.f) each in mixture, 1 gm/liter pad) was 365 ppm, the Leeching in ppm (Exhaust + pad, exhaust 0.5 (% o.w.f) each in mixture, 5 gm/liter pad) was 456 ppm and the Leeching in ppm (Exhaust + pad, exhaust 0.5 (% o.w.f) each in mixture, 10 gm/liter pad) was 867 ppm. The Leeching in ppm (Exhaust + pad, exhaust 1.0% o.w.f. each in mixture, 1 gm/liter pad) was 596 ppm, the Leeching in ppm (Exhaust + pad, exhaust 1.0% o.w.f. each in mixture, 5 gm/liter pad) was 810 ppm and the Leeching in ppm (Exhaust + pad, exhaust 1.0% o.w.f. each in mixture, 10 gm/liter pad) was 1456 ppm. The Leeching in ppm (Exhaust +Wash + pad, exhaust 0.1% o.w.f. each in mixture, 1 gm/liter pad) was 89 ppm, the Leeching in ppm (Exhaust +Wash + pad, exhaust 0.1% o.w.f. each in mixture, 5 gm/liter pad) was 154 ppm and the Leeching in ppm (Exhaust +Wash + pad, exhaust 0.1% o.w.f. each in mixture, 10 gm/liter pad) was 232 ppm. The Leeching in ppm (Exhaust +Wash + pad, exhaust 0.25% o.w.f. each in mixture, 1 gm/liter pad) was 184 ppm, the Leeching in ppm (Exhaust +Wash + pad, exhaust 0.25% o.w.f. each in mixture, 5 gm/liter pad) was 215 ppm and the Leeching in ppm (Exhaust +Wash + pad, exhaust 0.25% o.w.f. each in mixture, 10 gm/liter pad) was 321 ppm. For the same compound, the Leeching in ppm (Exhaust +Wash + pad, exhaust 0.5 (% o.w.f) each in mixture, 1 gm/liter pad) was 369 ppm, the Leeching in ppm (Exhaust +Wash + pad, exhaust 0.5 (% o.w.f) each in mixture, 5 gm/liter pad) was 413 ppm and the Leeching in ppm (Exhaust +Wash + pad, exhaust 0.5 (% o.w.f) each in mixture, 10 gm/liter pad) was 578 ppm. It also gave a Leeching in ppm (Exhaust +Wash + pad, exhaust 1.0% o.w.f. each in mixture, 1 gm/liter pad) of 469 ppm, a Leeching in ppm (Exhaust +Wash + pad, exhaust 1.0% o.w.f. each in mixture, 5 gm/liter pad) of 574 ppm and a Leeching in ppm (Exhaust +Wash + pad, exhaust 1.0% o.w.f. each in mixture, 10 gm/liter pad) of 657 ppm. For the same compound, the “Leaching of active ingredients (in ppm)” value (exhaust 60° C., solution dosage 1% o.w.f, process time 60 min) was 24 ppm, the “Leaching of active ingredients (in ppm)” value (exhaust 60° C., solution dosage 1% o.w.f, process time 90 min) was 12 ppm and the “Leaching of active ingredients (in ppm)” value (exhaust 60° C., solution dosage 1% o.w.f, process time 120 min) was 13 ppm. The “Leaching of active ingredients (in ppm)” value (exhaust 60° C., solution dosage 1% o.w.f, process time 180 min) was 13 ppm, the “Leaching of active ingredients (in ppm)” value (exhaust 60° C., solution dosage 1% o.w.f, process time 240 min) was 15 ppm and the “Leaching of active ingredients” value (mixture 0.2% o.w.f. each) was 0.3 ppm. For the same compound, the “Leaching of active ingredients” value (mixture 0.5% o.w.f. each) was 0.3 ppm, the “Leaching of active ingredients” value (mixture 1% o.w.f. each) was 0.9 ppm and the “Leaching of active ingredients (in ppm)” value (exhaust 80° C., 1% o.w.f, 60 min, curing 170° C., curing dwell time 0.5 min) was 28 ppm. For the same compound, the “Leaching of active ingredients (in ppm)” value (exhaust 80° C., 1% o.w.f, 60 min, curing 170° C., curing dwell time 1.0 min) was 24 ppm, the “Leaching of active ingredients (in ppm)” value (exhaust 80° C., 1% o.w.f, 60 min, curing 170° C., curing dwell time 1.5 min) was 21 ppm and the “Leaching of active ingredients (in ppm)” value (exhaust 80° C., 1% o.w.f, 60 min, curing 170° C., curing dwell time 2.0 min) was 15 ppm. The “Leaching of active ingredients (in ppm)” value (exhaust 80° C., 1% o.w.f, 60 min, curing 170° C., curing dwell time 2.5 min) was 17 ppm, the “Leaching of active ingredients (in ppm)” value (exhaust 80° C., 1% o.w.f, 60 min, curing 170° C., curing dwell time 3.0 min) was 17 ppm and the “Leaching of active ingredients (in ppm)” value (exhaust 80° C., 1% o.w.f, 60 min, curing 180° C., curing dwell time 0.5 min) was 24 ppm. The “Leaching of active ingredients (in ppm)” value (exhaust 80° C., 1% o.w.f, 60 min, curing 180° C., curing dwell time 1.0 min) was 12 ppm, the “Leaching of active ingredients (in ppm)” value (exhaust 80° C., 1% o.w.f, 60 min, curing 180° C., curing dwell time 1.5 min) was 13 ppm and the “Leaching of active ingredients (in ppm)” value (exhaust 80° C., 1% o.w.f, 60 min, curing 180° C., curing dwell time 2.0 min) was 3 ppm. For the same compound, the “Leaching of active ingredients (in ppm)” value (exhaust 80° C., 1% o.w.f, 60 min, curing 180° C., curing dwell time 2.5 min) was 13 ppm, the “Leaching of active ingredients (in ppm)” value (exhaust 80° C., 1% o.w.f, 60 min, curing 180° C., curing dwell time 3.0 min) was 13 ppm and the “Leaching of active ingredients (in ppm)” value (exhaust 80° C., 1% o.w.f, 60 min, curing dwell time at 190° C. (title): 0.5 min) was 23 ppm. The “Leaching of active ingredients (in ppm)” value (exhaust 80° C., 1% o.w.f, 60 min, curing dwell time at 190° C. (title): 1.0 min) was 12 ppm, the “Leaching of active ingredients (in ppm)” value (exhaust 80° C., 1% o.w.f, 60 min, curing dwell time at 190° C. (title): 1.5 min) was 12 ppm and the “Leaching of active ingredients (in ppm)” value (exhaust 80° C., 1% o.w.f, 60 min, curing dwell time at 190° C. (title): 2.0 min) was 10 ppm. For the same compound, the “Leaching of active ingredients (in ppm)” value (exhaust 80° C., 1% o.w.f, 60 min, curing dwell time at 190° C. (title): 2.5 min) was 27 ppm and the “Leaching of active ingredients (in ppm)” value (exhaust 80° C., 1% o.w.f, 60 min, curing dwell time at 190° C. (title): 3.0 min) was 34 ppm.
